Laboratory results published in PubChem BioAssay (NCI).
Several values for one entry are separate records, joined by “and”; a condition that tells them apart may be missing. Equal entries are not always repeated.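 Five concentrations, 48 hours, 96-well plates. Abbreviation: GI50, concentration required for 50% inhibition of growth. The concentration for full growth arrest is given as TGI.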

What was measured:
Experiment in all cases: NCI anticancer screen, dose series, 48 h
HOP-62 NSCLC = system: HOP-62 NSCLC
COLO 205 colon = system: COLO 205 colon
HS 578T breast = system: HS 578T breast
IGROV1 ovarian = system: IGROV1 ovarian
SN12C renal = system: SN12C renal
KM12 colon = system: KM12 colon
SK-OV-3 ovarian = system: SK-OV-3 ovarian
SW-620 colon = system: SW-620 colon
SK-MEL-5 melanoma = system: SK-MEL-5 melanoma
RPMI-8226 leukemia = system: RPMI-8226 leukemia

Structure (SMILES)	GI50 (HOP-62 NSCLC) [µM]	TGI (HOP-62 NSCLC)	GI50 (COLO 205 colon) [µM]	TGI (COLO 205 colon)	GI50 (HS 578T breast) [µM]	TGI (HS 578T breast)	GI50 (IGROV1 ovarian) [µM]	TGI (IGROV1 ovarian)	GI50 (SN12C renal) [µM]	TGI (SN12C renal)	GI50 (KM12 colon) [µM]	TGI (KM12 colon)	GI50 (SK-OV-3 ovarian) [µM]	TGI (SK-OV-3 ovarian)	GI50 (SW-620 colon) [µM]	TGI (SW-620 colon)	GI50 (SK-MEL-5 melanoma) [µM]	TGI (SK-MEL-5 melanoma)	GI50 (RPMI-8226 leukemia) [µM]	TGI (RPMI-8226 leukemia)
O=C1Nc2c(ccc(Cl)c2Cl)/C1=C\c1cc(C(F)(F)F)cc(C(F)(F)F)c1	7.04	14.4 µM	1.32	4.84 µM	1.21	3.18 µM	0.222	3.52 µM	3.59	10.9 µM	1.42	5.53 µM	9.28	27.2 µM	1.66	6.1 µM	2.67	8.45 µM	0.115	1.45 µM
COc1ccc2c(c1)C(=O)c1c-2c(OCCN2CCCCC2)nc2ccc(OC)cc12	0.595	11.2 µM	0.723	11.1 µM	4.5	22.8 µM	0.708	6.58 µM	0.429	10.1 µM	0.585	2.1 µM	2.02	16.4 µM	0.269	2.19 µM	1.92	5.61 µM	0.474	2.67 µM
CC(=O)Nc1ccc(Cc2ccc3[nH]c(=O)cc(C)c3c2)cc1	–	> 100 µM	–	> 100 µM	–	> 100 µM	–	> 100 µM	–	> 100 µM	–	> 100 µM	–	> 100 µM	–	> 100 µM	–	> 100 µM	–	> 100 µM
O=C(O)c1c[nH]c2c(ccc3[nH]cc(C(=O)O)c(=O)c32)c1=O	–	> 100 µM	–	> 100 µM	–	> 100 µM	–	> 100 µM	–	> 100 µM	–	> 100 µM	–	> 100 µM	–	> 100 µM	–	> 100 µM	–	> 100 µM
CNC(=O)c1cc(Oc2ccc3nc(NC(=O)Nc4cc(C(F)(F)F)cc(C(F)(F)F)c4)sc3c2)ccn1	1.15	2.8 µM	0.822	2.32 µM	1.65	4.84 µM	1.25	3.16 µM	1.64	3.79 µM	0.444	2 µM	1.43	3.18 µM	1.56	3.29 µM	0.593	2.09 µM	1.02	3.81 µM
O=C(c1ccccc1)c1c2n(c3c1cc(O)c1ccccc13)CCN2	5.6	17.9 µM	1.8	3.31 µM	10.9	> 100 µM	2.19	4.84 µM	2	4.21 µM	3.08	8.88 µM	11.1	25.2 µM	3.47	14.8 µM	12.1	25.1 µM	2.42	6.47 µM
COc1cc(/C=C2\CC3C4CCC5=CC(=O)CC[C@]5(C)C4CC[C@]3(C)C2=O)ccc1OCCN1CCCCC1 (stereo partly drawn)	2.36	6.66 µM	5.34	35.2 µM	4.79	23 µM	11.2	> 100 µM	2.79	9.56 µM	1.69	3.52 µM	20.5	48.7 µM	2.93	11.7 µM	1.51	3.09 µM	1.88	5.05 µM
N/C(=N\C(N)=N\c1nc2ccccc2s1)c1ccnc(Br)c1	3.65	57.2 µM	11	> 100 µM	3.76	46 µM	3.63	> 100 µM	5.57	> 100 µM	5.19	> 100 µM	5.95	> 100 µM	3.91	> 100 µM	3.49	> 100 µM	4.29	> 100 µM
COc1ccc(Nc2ncccc2C(=O)NCc2cn(Cc3cccc(Oc4ccccc4)c3)nn2)c(OC)c1	5.58	> 100 µM	2.11	5.7 µM	9.52	> 100 µM	5.18	> 100 µM	3.51	> 100 µM	1.11	> 100 µM	2.13	> 30.1 µM	2.35	> 100 µM	0.635	7.93 µM	5.33	> 100 µM
COc1ccc(/C=C/C(=O)c2ccccc2)cc1OC	19.3	31.1 µM and 43 µM	–	31.6 µM and 34.8 µM	42.3	65 µM and > 100 µM	15.4	49.7 µM and 43.7 µM	13.1	30.6 µM and 29 µM	6	10.2 µM and > 100 µM	37.8	29.5 µM and > 100 µM	–	> 100 µM and 18.4 µM	14.5	31.4 µM and 27.9 µM	3.93	> 100 µM and 25.3 µM
Oc1[nH]c2ccccc2c1/C=c1/ccc2c(c1)N=C(c1cc(F)cc(F)c1)N=2	10.4	25.2 µM	8.45	23.4 µM	5.08	31.9 µM	10.5	28.1 µM	11.4	30 µM	4.36	19 µM	14.2	29 µM	3.55	15.8 µM	5.82	19.1 µM	3.22	17.5 µM
CCN(CC)CCNC(=O)C(Cl)=C1C(Cl)=C(Cl)C(Cl)=C1Cl	3.94	15.5 µM	4.21	13.4 µM	3.01	25.3 µM	3.19	> 100 µM	4.03	49.8 µM	2.75	10.6 µM	3.21	> 100 µM	3.25	12.5 µM	2.98	11.1 µM	3.02	10.8 µM
Cc1ccnc(NC(c2ccccc2)c2ccc3cccnc3c2O)c1 (stereo not drawn)	4.41	96.2 µM	14.3	73.4 µM	3.21	35.1 µM	2.33	23.3 µM	5.27	> 100 µM	4.15	> 100 µM	4.36	> 100 µM	3.86	15.6 µM	4.31	15.6 µM	8.19	> 100 µM
CSc1nc(SC)c2c(C)cn(C3OC(C)C(O)C(O)C3O)c2n1 (stereo not drawn)	–	> 100 µM	–	> 100 µM	–	> 100 µM	–	> 100 µM	–	> 100 µM	–	> 100 µM	–	> 100 µM	–	> 100 µM	–	> 100 µM	–	> 100 µM
CCCCCCn1c2c(c3c(O)cccc31)C(=O)c1ccccc1-2	18.4	33.8 µM	38.8	> 100 µM	24.2	52.6 µM	19.2	39.6 µM	17.6	32 µM	17.6	34.4 µM	36.3	> 100 µM	18.2	34.8 µM	19.4	34.6 µM	20.3	41.9 µM
COC1/C=C/OC2(C)Oc3c(C)c(O)c4c(O)c(c(C=NOC(c5ccccc5)c5ccccc5)c(O)c4c3C2=O)NC(=O)/C(C)=C/C=C/C(C)C(O)C(C)C(O)C(C)C(OC(C)=O)C1C (stereo not drawn)	0.916	1.85 µM	1.01	2.06 µM	1.5	5.17 µM	1.72	5.54 µM	1.31	3.53 µM	0.992	1.96 µM	1.88	6.67 µM	1.35	3.72 µM	0.805	1.52 µM	1.16	3.19 µM
Clc1ccc(Nc2ncnc3c2sc2ncccc23)c(Cl)c1	< 0.01	> 19.7 µM	0.0573	> 25.8 µM	> 100	> 100 µM	> 100	> 100 µM	0.126	> 100 µM	3.39	> 100 µM	0.137	> 100 µM	0.0617	> 100 µM	0.0254	> 100 µM	0.0326	> 100 µM
O=C1c2ccccc2-c2ccccc2C1(Cl)Cl	1.13	2.64 µM	1.81	3.47 µM	2.5	9.41 µM	1.13	2.54 µM	1.45	2.98 µM	1.73	3.17 µM	1.7	3.08 µM	1.84	3.82 µM	1.32	2.63 µM	0.527	2.63 µM
C=C(C)C1CCC2(C(=O)O)CCC3(C)C(CCC4C5(C)CCC(O)C(C)(C)C5CCC43C)C12 (stereo not drawn)	–	27.6 µM	–	16.6 µM	–	55.7 µM	–	28.7 µM	–	26.1 µM	–	20.3 µM	–	34.2 µM	–	51.5 µM	–	20.3 µM	–	63.5 µM
O=C(Nc1ccc(Cl)cc1)c1cc2ccccc2cc1OP(=O)(O)O	3.57	17 µM	14.5	27.8 µM	2.96	19.8 µM	3.81	95.2 µM	3.4	> 100 µM	3.14	13.7 µM	2.51	16.9 µM	4.07	37.5 µM	2.89	8.83 µM	1.52	6.02 µM
O=C(Nc1nc(-c2ccccc2Cl)cs1)c1cc(-c2ccc(Cl)cc2)nc2ccc(Cl)cc12	3.73	45 µM	33.6	> 100 µM	2.67	25.7 µM	2.99	> 100 µM	0.895	76.9 µM	3.5	69.5 µM	26	> 100 µM	4.01	> 100 µM	2.51	9.07 µM	1.38	> 100 µM
